# How the values were obtained:
# [1] = test system: transient middle cerebral artery occlusion; experiment: Transient MCAO, pre-treatment study; format: in vivo, Sprague-Dawley rats
# Procedure: (§1) Next, I examined whether pretreatment with Tat-peptides would reduce stroke damage. Experiments were carried out in adult male Sprague-Dawley rats subjected to transient middle cerebral artery occlusion (MCAO) for 90 minutes by the intraluminal suture method (36,37). Animals were fasted overnight and injected with atropine sulfate (0.5 mg/kg IP). After 10 minutes anesthesia was induced with 3.5% halothane in a mixture of nitrous oxide and oxygen (Vol. 2:1) and maintained with 0.8% halothane. Rats were orally intubated, mechanically ventilated, and paralyzed with pancuronium bromide (0.6 mg/kg IV). Body temperature was maintained at 36.5-37.5° C. with a heating lamp. Polyethylene catheters in the femoral artery and vein were used to continuously record blood pressure and to sample blood for gas and pH measurements. […] This produces an extensive infarction encompassing the cerebral cortex and basal ganglia. […] Physiological parameters (body temperature, blood pressure, blood gases) were monitored and maintained throughout the experiment (Table 1). All experimental manipulations and analyses of data were performed by individuals blinded to the treatment groups. The extent of cerebral infarction was measured 24 h after MCAO onset (FIG. 7C inset). The postural reflex test (38), and the forelimb placing test (39) were used to grade neurological function on a scale of 0 to 12 (normal=0; worst=12) during MCAO (at 50 minutes) and 24 h thereafter.
# [2] = test system: transient unilateral middle cerebral artery occlusion
# [3] = Physiological variables in post-treatment MCAO study; format: in vivo, Sprague-Dawley rats
# Procedure: Next, I examined whether treatment with Tat-NR2B9c could attenuate ischemic neuronal damage in-vivo when given after stroke onset. […] Infarction volume and neurological outcome measurements were performed at times identical to the pre-treatment study. Body temperature, blood pressure and blood gases were monitored throughout the 24 h experiment and maintained equivalent between groups (Table 2).
# [4] = Physiological variables in pre-treatment MCAO study; format: in vivo, Sprague-Dawley rats
# Procedure: as §1
# [5] = Baseline behaviours after single i.v. injection; format: in vivo, Sprague-Dawley rats; conditions: over 4 hours, 0.5-50 nmols/g
substance,measurement,setting,value
Tat-KLSSIESDV [Tat-NR2B9c],reduction in cortical infarction,"[1]; 3 nMoles/g i.v. 45 min prior to MCAO, 24 h after MCAO onset",70.7±11.23%
same,reduction of volume of total cerebral infarction,"[1]; 3 nMoles/g i.v. 45 min prior to MCAO, 24 h after MCAO onset, vs controls",54.6±11.27%
same,24 h neurological scores,[1]; 3 nMoles/g i.v. bolus 45 min prior to MCAO,trend toward improvement
same,"return to pre-surgery weight for 2 consecutive days, earlier than saline or NR2B-AA treated rats",[2]; 3 nmoles/g i.v. 3 hours after onset of ischemia,about 1 week
same,Mean latency to retreat from the open to the closed arm in the elevated plus maze,[2]; 6 days following MCA occlusion,significant difference from Tat-NR2B-AA
same,Mean (SE) core temperature during surgery,[2]; MCAO 90 min,37.1 (∀0.1)
same,Mean (SE) core temperature subsequent to surgery,[2]; MCAO 90 min,37.9 (∀0.2)
same,Mean (SE) systolic blood pressure during surgery,[2]; MCAO 90 min,112 (∀6.3)
same,Mean (SE) systolic blood pressure prior to surgery,[2]; MCAO 90 min,106 (∀4.3)
same,Mean (SE) systolic blood pressure subsequent to surgery,[2]; MCAO 90 min,122 (∀5.5)
same,Mean (SE) core temperature prior to surgery,"[2]; MCAO 90 min, drug i.v. 3 hours after onset of ischemia",36.7 (∀0.2)
same,individual weight post-surgery versus controls,[2]; a number of days including day 56 post-injury,significantly heavier
same,Morris water maze acquisition phase,[2]; approximately 2 months post-injury,No significant group differences
same,Morris water maze memory (time in the target quadrant),"[2]; approximately 2 months post-injury, vs combined control",significantly reduced memory deficits
same,"Barnes maze escape latencies, acquisition phase",[2]; days 36-45,consistently shorter mean escape latencies
same,Barnes maze retest (memory),"[2]; days 36-45, relative to controls",performed significantly better
same,Habituation score for grid crosses in the open field arena,[2]; difference between day 5 and day 15,significant difference from Tat-NR2B-AA and Saline
same,latency in horizontal ladder task,"[2]; post-surgery days 5, 9 and 14",significantly reduced latencies
same,number of paw slips in horizontal ladder task,"[2]; post-surgery days 5, 9 and 14",significantly fewer paw slips
same,total infarct area and volume at 62 days post-surgery,[2]; relative to TAT-NR2B-AA and saline,reduced total infarct area and volume
same,Mean sensory-motor score over 56 days post-MCAO,[2]; treated at 3 hours post-MCAO,significant long-term functional neuroprotection
same,Body Temperature,[3]; After MCAo (15 min),36.8 ± 0.08 °C
same,MABP,[3]; After MCAo (15 min),119 ± 4 mmHg
same,Body Temperature,[3]; After MCAo (24 hr),36.4 ± 0.24 °C
same,Body weight,[3]; After MCAo (24 hr),279 ± 8 g
same,Blood gases PCO2,[3]; Before MCAo(15 min),40.1 ± 1.0 mmHg
same,Blood gases PH,[3]; Before MCAo(15 min),7.43 ± 0.02
same,Blood gases PO2,[3]; Before MCAo(15 min),105 ± 4 mmHg
same,Body Temperature,[3]; Before MCAo(15 min),36.6 ± 0.07 °C
same,MABP,[3]; Before MCAo(15 min),103 ± 5 mmHg
same,Body weight,[3]; Before anesthesia,306 ± 7 g
same,Blood gases PCO2,[3]; During MCAo (15 min),39.8 ± 0.9 mmHg
same,Blood gases PH,[3]; During MCAo (15 min),7.43 ± 0.01
same,Blood gases PO2,[3]; During MCAo (15 min),111 ± 4 mmHg
same,Body Temperature,[3]; During MCAo (15 min),37.0 ± 0.07 °C
same,MABP,[3]; During MCAo (15 min),119 ± 8 mmHg
same,Body Temperature,[3]; During MCAo (60 min),36.7 ± 0.11 °C
same,MABP,[3]; During MCAo (60 min),143 ± 5 mmHg
same,Body Temperature,[3]; During MCAo (65 min),36.9 ± 0.08 °C
same,MABP,[3]; During MCAo (65 min),137 ± 4 mmHg
same,Body Temperature,[4]; After MCAo (15 min),36.8 ± 0.12 °C
same,Body Temperature,[4]; After MCAo (24 hr),36.5 ± 0.14 °C
same,Body weight,[4]; After MCAo (24 hr),250 ± 5 g
same,Body Temperature,[4]; Before MCAo(15 min),36.7 ± 0.20 °C
same,MABP,[4]; Before MCAo(15 min),90 ± 6 mmHg
same,Blood gases PCO2,[4]; Before MCAo(30 min),38.1 ± 1.4 mmHg
same,Blood gases PH,[4]; Before MCAo(30 min),7.44 ± 0.02
same,Blood gases PO2,[4]; Before MCAo(30 min),123 ± 8 mmHg
same,Body Temperature,[4]; Before MCAo(30 min),36.7 ± 0.19 °C
same,MABP,[4]; Before MCAo(30 min),76 ± 5 mmHg
same,Body Temperature,[4]; Before MCAo(45 min),36.6 ± 0.21 °C
same,MABP,[4]; Before MCAo(45 min),120 ± 9 mmHg
same,Body weight,[4]; Before anesthesia,271 ± 5 g
same,Blood gases PCO2,[4]; During MCAo (5 min),41.0 ± 1.3 mmHg
same,Blood gases PH,[4]; During MCAo (5 min),7.44 ± 0.02
same,Blood gases PO2,[4]; During MCAo (5 min),112 ± 6 mmHg
same,Body Temperature,[4]; During MCAo (5 min),36.7 ± 0.16 °C
same,MABP,[4]; During MCAo (5 min),112 ± 9 mmHg
same,Body Temperature,[4]; During MCAo (15 min),36.8 ± 0.23 °C
same,MABP,[4]; During MCAo (15 min),98 ± 6 mmHg
same,"changes in sensory-motor, open field, or exploratory behaviour",[5],No significant changes

# Reference: US8071548B2, “Method of reducing injury to mammalian cells” (Nono, Inc., priority 2002, dated 2011)
